One assay concerns the target T1, menin protein (Homo sapiens, UniProt O00255).
T1 sequence (O00255 1-610): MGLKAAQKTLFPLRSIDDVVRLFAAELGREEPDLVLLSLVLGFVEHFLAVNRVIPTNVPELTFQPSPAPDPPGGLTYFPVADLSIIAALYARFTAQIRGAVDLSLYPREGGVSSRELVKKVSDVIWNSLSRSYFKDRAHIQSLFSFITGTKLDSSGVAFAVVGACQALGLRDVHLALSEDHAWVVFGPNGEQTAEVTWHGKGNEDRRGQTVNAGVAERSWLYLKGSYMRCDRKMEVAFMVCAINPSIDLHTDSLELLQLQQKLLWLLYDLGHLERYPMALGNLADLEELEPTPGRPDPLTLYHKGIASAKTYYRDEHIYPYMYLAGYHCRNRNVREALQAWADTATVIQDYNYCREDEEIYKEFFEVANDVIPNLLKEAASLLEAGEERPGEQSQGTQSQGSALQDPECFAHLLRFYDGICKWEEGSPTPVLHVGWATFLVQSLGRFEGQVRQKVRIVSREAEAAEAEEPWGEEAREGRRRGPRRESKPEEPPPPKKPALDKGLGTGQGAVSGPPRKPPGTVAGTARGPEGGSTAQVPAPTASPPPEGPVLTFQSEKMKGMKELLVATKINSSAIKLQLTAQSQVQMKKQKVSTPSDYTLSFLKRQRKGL
The assay can be described thus: Fluorescence polarization (FP) competitive binding assay, menin binding affinity. The note with it: FP competition with FAM-MM2 probe 2 nM, menin 4 nM, 30 minutes room temperature. An outline of the steps:
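Competitive FP with FAM-labeled MLL1 peptide probe FAM-MM2 (2 nM) and menin (4 nM) in PBS, 0.02% bovine γ-globulin, 4% DMSO, 0.01% Triton X-100. After 30 min at room temperature, mP read at 485/530 nm; IC50 from nonlinear regression against probe-only and complex-only controls.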

For another assay, the system named is MOLM13. Nature of the assay: 7-day proliferation assay (WST-8), cell growth inhibition. It counts as cell-based. The note with it: Homo sapiens, MOLM-13, 168 h, MOLM13 cells, 7 days. The method, boiled down: (§1)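 Cells seeded at 2,000-3,000/well were exposed to serially diluted compound for 7 days at 37° C., 5% CO2. Viability was read by WST-8 absorbance at 450 nm after 1-2 h color development; readings normalized to DMSO-treated cells, IC50 by four-parameter nonlinear regression.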

A further assay concerns MV4-11. The assay is described as above. The note with it: Homo sapiens, MV4-11, 168 h, MV4-11 cells, 7 days. It counts as cell-based. The method, boiled down:
as §1

What is called IC50 is the concentration that gives 50% inhibition. Turning to `COC(=O)N[C@H]1CCC[C@@H]1[C@](CN1CCC1)(c1cccc(F)c1)C1CCN(CC2CN(c3ccc(S(=O)(=O)C4CN(C(=O)/C=C/CN5CCCC5)C4)cc3)C2)CC1` [Cpd. No. 20, methyl ((1S,2R)-2-((S)-2-(azetidin-1-yl)-1-(3-fluorophenyl)-1-(1-((1-(4-((1-((E)-4-(pyrrolidin-1-yl)but-2-enoyl)azetidin-3-yl)sulfonyl)phenyl)azetidin-3-yl)methyl)piperidin-4-yl)ethyl)cyclopentyl)carbamate], the IC50 at menin protein is 2 nM; in the assay on MOLM13, below 100 nM; in the assay on MV4-11 it was below 10 nM.

Regarding `COC(=O)N[C@H]1CCC[C@@H]1[C@](CN1CCC1)(c1cccc(F)c1)C1CCN(CC2CN(c3ccc(S(=O)(=O)C4CN(C(=O)/C=C/CN5CCCCC5)C4)cc3)C2)CC1` [Cpd. No. 24, methyl ((1S,2R)-2-((S)-2-(azetidin-1-yl)-1-(3-fluorophenyl)-1-(1-((1-(4-((1-((E)-4-(piperidin-1-yl)but-2-enoyl)azetidin-3-yl)sulfonyl)phenyl)azetidin-3-yl)methyl)piperidin-4-yl)ethyl)cyclopentyl)carbamate], the IC50 was 3 nM on menin protein, below 10 nM in the assay on MOLM13 and below 10 nM in the assay with MV4-11.

As to `COC(=O)N[C@H]1CCC[C@@H]1[C@](CN1CCC1)(c1cccc(F)c1)C1CCN(CC2CN(c3ccc(S(=O)(=O)C4CN(C(=O)/C=C/CN5CC(F)C5)C4)cc3)C2)CC1` [Cpd. No. 174], the IC50 is 2 nM on menin protein, below 10 nM in the assay with MOLM13 and below 10 nM in the assay with MV4-11.

For `COC(=O)N[C@H]1CCC[C@@H]1[C@](CN1CCC1)(c1cccc(F)c1)C1CCN(CC2CN(c3ccc(S(=O)(=O)C4CN(C(=O)/C=C/CN5CC(F)(F)C5)C4)cc3)C2)CC1` [Cpd. No. 175], the IC50 is 1 nM at menin protein, below 10 nM in the assay on MOLM13 and below 10 nM in the assay on MV4-11.

For `C=CC(=O)Nc1cccc(S(=O)(=O)c2ccc(N3CC(F)(CN4CCC([C@@](CN5CCC5)(c5cccc(F)c5)[C@H]5CCC[C@@H]5NC(=O)OC)CC4)C3)c(F)c2)c1` [compound 80], the IC50 on menin protein was 2 nM; in the assay with MOLM13 it was below 50 nM; in the assay on MV4-11 it was below 50 nM.

Consider `COC(=O)N[C@H]1CCC[C@@H]1[C@](CN1CCC1)(c1cccc(F)c1)C1CCN(CC2CN(c3ccc(S(=O)(=O)C4CN(C(=O)/C=C/CN5CCC(C)(O)CC5)C4)cc3)C2)CC1` [compound 99], for which the IC50 on menin protein was 9 nM; in the assay on MOLM13, below 100 nM; with MV4-11 it was below 10 nM.

`COC(=O)N[C@H]1CCC[C@@H]1[C@](CNC(C)=O)(c1cccc(F)c1)C1CCN(CC2CN(c3ccc(S(=O)(=O)C4CN(C(=O)/C=C/CN5CCCCC5)C4)c(CN4CC(F)C4)c3)C2)CC1` [compound 131]: the half-inhibitory concentration (IC50) on menin protein is 2 nM; in the assay on MOLM13, below 10 nM; in the assay on MV4-11 it was below 10 nM.

With `C=CC(=O)N1CCCCC(S(=O)(=O)c2ccc(N3CC(F)(CN4CCC([C@@](CN5CCC5)(c5cccc(F)c5)[C@H]5CCC[C@@H]5NC(=O)OC)CC4)C3)cc2)C1` (stereo partly drawn) [compound 215], the half-maximal inhibitory concentration (IC50) is 1 nM at menin protein, below 10 nM in the assay on MOLM13 and below 10 nM with MV4-11.

Turning to `C=CC(=O)N1CCOC[C@@H](S(=O)(=O)c2ccc(N3CC(F)(CN4CCC([C@@](CN5CCC5)(c5cccc(F)c5)[C@H]5CCC[C@@H]5NC(=O)OC)CC4)C3)c(F)c2)C1` [compound 216], the figures for the IC50 at menin protein, in the assay with MOLM13 and in the assay with MV4-11 were 2 nM, below 100 nM and below 50 nM, respectively.

In the case of `C=CC(=O)N1CCOC[C@@H](S(=O)(=O)c2ccc(N3CC(C)(CN4CCC([C@@](CN5CCC5)(c5cccc(F)c5)[C@H]5CCC[C@@H]5NC(=O)OC)CC4)C3)c(F)c2)C1` [compound 217], the figures for the IC50 at menin protein, with MOLM13 and with MV4-11 were 2 nM, below 100 nM and below 10 nM, respectively.

In the case of `C=CC(=O)N1CCOC[C@@H](S(=O)(=O)c2ccc(N3CC(CN4CCC([C@@](CN5CCC5)(c5cccc(F)c5)[C@H]5CCC[C@@H]5NC(=O)OC)CC4)C3)c(F)c2)C1` [compound 218], the IC50 on menin protein was 2 nM; with MOLM13, below 1000 nM; in the assay with MV4-11, below 50 nM.

Consider `C=CC(=O)N1CCC[C@@H](S(=O)(=O)c2ccc(N3CC(CN4CCC([C@@](CN5CCC5)(c5cccc(F)c5)[C@H]5CCC[C@@H]5NC(=O)OC)CC4)C3)c(F)c2)C1` [compound 219], for which the IC50 is 2 nM at menin protein, below 10 nM with MOLM13 and below 10 nM with MV4-11.

Take `C=CC(=O)N1CCCC[C@@H](S(=O)(=O)c2ccc(N3CC(CN4CCC([C@@](CN5CCC5)(c5cccc(F)c5)[C@H]5CCC[C@@H]5NC(=O)OC)CC4)C3)cc2)C1` [compound 220]: the IC50 on menin protein is 5 nM; in the assay on MOLM13, below 50 nM; with MV4-11, below 10 nM.

With `C=CC(=O)N1CCCC[C@@H](S(=O)(=O)c2ccc(N3CC(F)(CN4CCC([C@@](CN5CCC5)(c5cccc(F)c5)[C@H]5CCC[C@@H]5NC(=O)OC)CC4)C3)cc2)C1` [compound 221], the IC50 is 5 nM on menin protein, below 50 nM in the assay with MOLM13 and below 50 nM with MV4-11.

Consider `C=CC(=O)N1CCCC[C@@H](S(=O)(=O)c2ccc(N3CC(C)(CN4CCC([C@@](CN5CCC5)(c5cccc(F)c5)[C@H]5CCC[C@@H]5NC(=O)OC)CC4)C3)cc2)C1` [compound 222], for which the figures for the half-maximal inhibitory concentration (IC50) at menin protein, in the assay with MOLM13 and in the assay with MV4-11 were 4 nM, below 50 nM and below 50 nM, respectively.

With `C=CC(=O)N1CCCC[C@@H](S(=O)(=O)c2ccc(N3CC(CN4CCC([C@@](CN5CCC5)(c5cccc(F)c5)[C@H]5CCC[C@@H]5NC(=O)OC)CC4)C3)c(F)c2)C1` [compound 223], the 50% inhibitory concentration (IC50) at menin protein is 4 nM; with MOLM13, below 50 nM; with MV4-11 it was below 50 nM.

`C=CC(=O)N1CCCC[C@@H](S(=O)(=O)c2ccc(N3CC(F)(CN4CCC([C@@](CN5CCC5)(c5cccc(F)c5)[C@H]5CCC[C@@H]5NC(=O)OC)CC4)C3)c(F)c2)C1` [compound 224]: the half-inhibitory concentration (IC50) at menin protein was 4 nM; with MOLM13, below 50 nM; in the assay with MV4-11, below 50 nM.

Turning to `C=CC(=O)N1CCCC[C@@H](S(=O)(=O)c2ccc(N3CC(C)(CN4CCC([C@@](CN5CCC5)(c5cccc(F)c5)[C@H]5CCC[C@@H]5NC(=O)OC)CC4)C3)c(F)c2)C1` [compound 225], the 50% inhibitory concentration (IC50) at menin protein was 7 nM; in the assay on MOLM13, below 100 nM; in the assay with MV4-11 it was below 100 nM.

Turning to `C=CC(=O)N1CCCC[C@@H](S(=O)(=O)c2ccc(N3CC(CN4CCC([C@@](CN5CCC5)(c5cccc(F)c5)[C@H]5CCC[C@@H]5NC(=O)OC)CC4)(OC)C3)cc2)C1` [compound 226], the IC50 on menin protein was 3 nM; with MOLM13 it was below 50 nM; in the assay on MV4-11 it was below 50 nM.

For `C=CC(=O)N1CCCC[C@@H](S(=O)(=O)c2ccc(N3CC(CN4CCC([C@@](CN5CCC5)(c5cccc(F)c5)[C@H]5CCC[C@@H]5NC(=O)OC)CC4)(OC)C3)c(F)c2)C1` [compound 227], the IC50 is 7 nM at menin protein, below 50 nM in the assay with MOLM13 and below 50 nM with MV4-11.

As for `C=CC(=O)N1CCCC[C@@H](S(=O)(=O)c2ccc(N3CC(O)(CN4CCC([C@@](CN5CCC5)(c5cccc(F)c5)[C@H]5CCC[C@@H]5NC(=O)OC)CC4)C3)cc2)C1` [compound 228], the values for the IC50 on menin protein, in the assay on MOLM13 and in the assay on MV4-11 were 7 nM, below 500 nM and below 50 nM, respectively.

`C=CC(=O)N1CCCC[C@@H](S(=O)(=O)c2ccc(N3CC(O)(CN4CCC([C@@](CN5CCC5)(c5cccc(F)c5)[C@H]5CCC[C@@H]5NC(=O)OC)CC4)C3)c(F)c2)C1` [compound 229]: the IC50 at menin protein was 8 nM; in the assay with MOLM13 it was below 500 nM; in the assay with MV4-11, below 100 nM.

For `C=CC(=O)N1CCOC[C@@H](S(=O)(=O)c2ccc(N3CC(CN4CCC([C@@](CN5CCC5)(c5cccc(F)c5)[C@H]5CCC[C@@H]5NC(=O)OC)CC4)(OC)C3)c(F)c2)C1` [compound 230], the 50% inhibitory concentration (IC50) is 5 nM at menin protein, below 50 nM with MOLM13 and below 50 nM in the assay with MV4-11.

Regarding `CC#CC(=O)N1CCCC[C@@H](S(=O)(=O)c2ccc(N3CC(F)(CN4CCC([C@@](CN5CCC5)(c5cccc(F)c5)[C@H]5CCC[C@@H]5NC(=O)OC)CC4)C3)cc2)C1` [compound 231], the IC50 is 4 nM at menin protein, below 500 nM in the assay with MOLM13 and below 500 nM in the assay on MV4-11.

Regarding `CC#CC(=O)N1CCCC[C@@H](S(=O)(=O)c2ccc(N3CC(CN4CCC([C@@](CN5CCC5)(c5cccc(F)c5)[C@H]5CCC[C@@H]5NC(=O)OC)CC4)(OC)C3)c(F)c2)C1` [compound 232], the values for the concentration for half-maximal inhibition (IC50) at menin protein, with MOLM13 and in the assay with MV4-11 were 3 nM, below 500 nM and below 100 nM, respectively.

(Values after patent US20210115018A1, “PIPERIDINE COMPOUNDS AS COVALENT MENIN INHIBITORS” (THE REGENTS OF THE UNIVERSITY OF MICHIGAN, priority 2018, published 2021).)
